The source of these data is article PMC11625327, “Molecular determinants of neuropeptide-mediated activation mechanisms in tachykinin NK1 and NK2 receptors” (The Journal of Biological Chemistry, 2024).

What all share (format): cell-based
Experiment [1] concerns the target T1, NK1R F264Y M291F (Homo sapiens, UniProt P25103, F264Y/M291F).
T1 construct: host or cells: COS7
As to the kind of experiment: BRET-based cAMP assay (Gs). The note with it: COS-7, COS7 cells, CAMYEL BRET sensor, four-parameter fit, mean ± SEM of three independent experiments. On the procedure:
(§1) COS7 cells were tested monthly for mycoplasma and kept negative. COS7 cells were plated in either clear, white, or white with clear bottom 96-well plates that were coated with poly-D-lysine (Sigma-Aldrich) 30 min prior to cell seeding (20,000 cells/well). The following day plates were transiently transfected using calcium precipitation with 200 ng/well DNA in a culture medium with the addition of 100μM (final concentration) chloroquine. Transfection was stopped 5 h later with the addition of a fresh maintenance medium. Fig. […] The intracellular level of cAMP was monitored in real-time using BRET. This was achieved by implementing a construct consisting of a cAMP binding protein (exchange protein activated by cAMP [EPAC]) which has been flanked by a BRET pair consisting of Rluc and yellow fluorescent protein. This construct is called CAMYEL (cAMP sensor using yellow fluorescent protein-EPAC-Rluc) and enables cAMP production to be sensed as EPAC changes conformation in response to increasing levels of cAMP, ultimately resulting in a loss of BRET signal. […] The BRET signal was calculated as the ratio of emission intensity at 535 nm (citrine) to the emission intensity at 475 nm (luciferase). […] All dose-response curves have been calculated using Prism 10 software (GraphPad Software, www.graphpad.com) nonlinear regression with four parameters. […]

In experiment [2] the target is T2, NK1R M291F (Homo sapiens, UniProt P25103, M291F).
T2 construct: host or cells: COS7
T2 sequence (P25103 whole entry M291F): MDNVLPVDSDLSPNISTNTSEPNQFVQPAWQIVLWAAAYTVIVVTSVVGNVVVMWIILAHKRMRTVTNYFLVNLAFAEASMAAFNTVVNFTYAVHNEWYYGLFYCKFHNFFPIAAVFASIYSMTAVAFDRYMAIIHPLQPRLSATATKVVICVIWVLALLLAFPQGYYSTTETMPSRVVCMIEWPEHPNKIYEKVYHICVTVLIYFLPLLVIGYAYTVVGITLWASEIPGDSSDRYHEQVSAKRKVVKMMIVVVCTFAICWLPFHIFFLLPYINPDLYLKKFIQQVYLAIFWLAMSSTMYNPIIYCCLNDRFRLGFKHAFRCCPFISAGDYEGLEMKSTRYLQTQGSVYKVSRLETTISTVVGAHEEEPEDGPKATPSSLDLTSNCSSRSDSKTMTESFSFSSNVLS
As to the kind of experiment: BRET-based cAMP assay (Gs). The settings on record: COS-7, COS7 cells, CAMYEL BRET sensor, four-parameter fit, mean ± SEM of three independent experiments. On the procedure: as §1
(In general: BRET reads energy transfer from a luciferase to a nearby fluorophore.)

A further experiment deals with T3, NK1R F264Y (Homo sapiens, UniProt P25103, F264Y).
T3 construct: host or cells: COS7
T3 sequence (P25103 whole entry F264Y): as the sequence (P25103 whole entry M291F) above, with F264Y, F291M counted along it
As to the kind of experiment: IP3 accumulation assay (Gq). The note with it: COS-7, COS7 cells, [3H]inositol, 10 mM LiCl, 150 min 37 °C, mean ± SEM of three independent experiments. On the procedure:
(§2) COS7 cells were tested monthly for mycoplasma and kept negative. COS7 cells were plated in either clear, white, or white with clear bottom 96-well plates that were coated with poly-D-lysine (Sigma-Aldrich) 30 min prior to cell seeding (20,000 cells/well). The following day plates were transiently transfected using calcium precipitation with 200 ng/well DNA in a culture medium with the addition of 100μM (final concentration) chloroquine. Transfection was stopped 5 h later with the addition of a fresh maintenance medium. Fig. […] COS7 cells seeded in clear 96-well plates were incubated with 0.5 μCi/ml myo [3H]inositol (Perkin Elmer) in 100 μl growth medium overnight following the transfection. The subsequent day cells were washed twice with 200 μl/well HBSS (GIBCO, Life Technologies) and preincubated for 5 min at 37 °C with 100 μl/well HBSS buffer supplemented with 10 mM LiCl. Ligand addition was followed by 150 min incubation at 37 °C. To stop ligand incubation, cells were lysed with 40 μl 10 mM formic acid followed by 30 min incubation on ice. Thirty five microliters of the lysate was transferred to white 96-well plates together with 60 μl of 1:8 diluted YSi SPA scintillation beads (Perkin Elmer). Plates were sealed and vigorously shaken for 15 min, followed by 5 min centrifugation at 1500 rpm. Measurements (scintillation) were recorded on a Microbeta (PerkinElmer) after a 4 h delay and determinations were made in duplicates. All dose-response curves have been calculated using Prism 10 software (GraphPad Software, www.graphpad.com) nonlinear regression with four parameters. All data are shown as mean ± SEM unless stated otherwise and consist of two technical replicates from three biological replicates.

Experiment [3] has as its target T1, NK1R F264Y M291F. As to the kind of experiment: IP3 accumulation assay (Gq). The note with it: COS-7, COS7 cells, [3H]inositol, 10 mM LiCl, 150 min 37 °C, mean ± SEM of three independent experiments. The protocol: as §2
Experiment [4] concerns the target T2, NK1R M291F. As to the kind of experiment: IP3 accumulation assay (Gq). The note with it: COS-7, COS7 cells, [3H]inositol, 10 mM LiCl, 150 min 37 °C, mean ± SEM of three independent experiments. On the procedure: as §2

SMILES strings stand for the structures.

T1 sequence (P25103 whole entry F264Y/M291F): as the sequence (P25103 whole entry M291F) above, with F264Y counted along it

For orientation: Emax means the maximal effect, on the per cent scale that the assay sets. As for `CSCC[C@H](NC(=O)[C@H](CC(C)C)NC(=O)CNC(=O)[C@@H](NC(=O)[C@H](Cc1ccccc1)NC(=O)[C@H](CO)NC(=O)[C@H](CC(=O)O)NC(=O)[C@@H](NC(=O)[C@H](CCCCN)NC(=O)[C@@H](N)Cc1c[nH]cn1)[C@@H](C)O)C(C)C)C(N)=O` [NKA, neurokinin A], the Emax is 125% at NK1R F264Y M291F [1]; 99.9% on NK1R M291F [2]; 105 ± 6.3% on NK1R F264Y; 102 ± 11% on NK1R F264Y M291F [3]; 102 ± 12.7% on NK1R M291F [4].
